The results in this text go back to ChEMBL document CHEMBL5321196, “Fluorescent and theranostic probes for imaging nicotinamide phosphoribosyl transferase (NAMPT)” (Eur J Med Chem, 2023).

For experiment [1], the target named is T1, Nicotinamide phosphoribosyltransferase (Homo sapiens, UniProt P43490). Kind of experiment: Inhibition of NAMPT in human A2780 cells measured at 48 hrs.
Experiment [2] deals with T1, Nicotinamide phosphoribosyltransferase. Kind of experiment: Inhibition of NAMPT in human A2780 cells measured at 6 hrs.
Experiment [3] has the same target. Kind of experiment: Inhibition of NAMPT in human A2780 cells measured at 24 hrs.

T1 sequence (P43490 whole entry): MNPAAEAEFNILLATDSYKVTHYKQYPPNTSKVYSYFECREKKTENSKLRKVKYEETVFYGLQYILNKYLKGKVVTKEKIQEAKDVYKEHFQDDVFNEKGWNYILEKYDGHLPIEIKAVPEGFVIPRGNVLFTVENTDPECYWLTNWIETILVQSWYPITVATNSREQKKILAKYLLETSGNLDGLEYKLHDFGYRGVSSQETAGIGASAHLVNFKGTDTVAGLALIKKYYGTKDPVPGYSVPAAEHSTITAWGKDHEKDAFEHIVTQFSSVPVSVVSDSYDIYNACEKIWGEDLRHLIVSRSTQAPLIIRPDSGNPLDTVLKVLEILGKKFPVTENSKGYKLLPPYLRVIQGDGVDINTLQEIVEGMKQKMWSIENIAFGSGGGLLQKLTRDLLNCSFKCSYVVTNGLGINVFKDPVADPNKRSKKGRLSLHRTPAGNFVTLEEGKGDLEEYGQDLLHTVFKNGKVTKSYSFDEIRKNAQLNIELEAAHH

As to `O=S(=O)(c1ccc(NC(=S)NCc2cccnc2)cc1)N1CCNCC1`, the IC50 (in general, the concentration that gives 50% inhibition) in experiment [1] is 4.05 µM; in experiment [2], > 10 µM; in experiment [3], 7.18 µM.
